Measurements taken from patent US4689326A, “Process for controlling hyperlipidemia” (Research Corporation, priority 1985, dated 1987).

Experiments:
Assay type in all cases: in vivo, CF1 male mice
[1] = system: serum cholesterol; test: Testing of Normal Mice: serum cholesterol (modified Liebermann-Burchard), Example 7; conditions: Mus musculus, 20 mg/kg/day ip
Procedure: (§1) Suspensions of Compounds Nos. 1-9 were prepared wherein the compounds were suspended in an aqueous 1% carboxymethylcelluose solution, homogenized and administered to CF1 male mice, each weighing approximately 25 grams, intraperitoneally on a daily basis for 16 days. The dosage was, with the exception of one compound, 20 milligrams of the active compound per kilogram of mouse weight per day. On days 9 and 16 blood was obtained by tail vein bleeding. The blood serum was separated by centrifugation for three minutes. Serum cholesterol levels were determined by a modification of the Liebermann-Burchard reaction. Serum was also collected on day 16 and the triglycerides content was determined by a commercial kit, BioDynamics/bnc Single Vile Colorimetric Method 348201. Each compound was tested on a group of six mice.
(§2) In addition to the above-described treated mice, untreated control groups of six mice were similarly tested on days 9 and 14 or 16 to determine their serum cholesterol and triglycerides blood levels. Table 5 reports the percent control, based on the serum cholesterol and serum triglyceride levels of the treated mice compared to the untreated controls. Table 5 also includes the standard deviation indicating the level of confidence of these numbers.
(§3) Example 7 was repeated substituting clofibrate, a compound used in the prior art to lower serum cholesterol and serum triglyceride levels. The clofibrate was administered as a suspension in an aqueous 1% solution of carboxymethylcellulose. However, unlike the compounds of the present invention which were administered at a dosage of 20 mg/kg day, ip, this compound was administered at the elevated concentration of 150 mg/kg day, ip.

[2] = system: serum triglycerides; test: Testing of Normal Mice: serum triglycerides (BioDynamics kit), Example 7; conditions: Mus musculus, 384 h; 20 mg/kg/day ip, day 16, ± SD
Procedure: as §1, §2, §3

[3] = system: serum cholesterol; test: Hypolipidemic Activity of Compounds 1 and 10-33, Example 13: serum cholesterol; conditions: Mus musculus, 20 mg/kg/day ip
Procedure: (§4) Compounds 1 and 10-33, identified below in Table 11, were suspended by homogenation in a 1% aqueous solution of carboxymethylcellulose (CMC) such that a 0.2 ml dosage supplied a concentration of 20 mg/kg of the active compounds. The suspending agent, the 1% aqueous solution of CMC, was utilized as a control, applied in the same quantity, 0.2 ml. CF1 male mice, maintained in groups of six, were fed Wayne Blox [trademark] laboratory animal show ad libitum with water. The mice, which each weighed approximately 25 g, were administered the drugs interperitoneally at approximately the same time. On days 9 and 16 approximately […] of blood was taken from each of the animals by tail bleeding. After centrifugation to obtain serum, 25 microliter samples were assayed for total cholesterol utilizing the method of Ness et al. Serum triglyicerides were assayed, using a commercially available BioDynamics/bmc triglyiceride kit, on blood collected on the 16th day. By comparison to standards the milligram percent of cholesterol and milligram per deciliter concentration of triglicerides were calculated. Treated values were expressed as a percent of the level of the control animals plus or minus the standard deviation. The "T" values were obtained using the Student's "t" test.

[4] = system: serum triglycerides; test: Hypolipidemic Activity of Compounds 1 and 10-33, Example 13: serum triglycerides; conditions: Mus musculus, 384 h; 20 mg/kg/day ip, day 16, ± SD; read-out: Serum Triglyceride as a function of control, 16 Day
Procedure: as §4

Measured: response vs control in vivo at 20 mg/kg

O=c1[nH]c(=O)c2ccccc2c2ccccc12 [Compound 1, Diphenimide]
82 ± 4%: [1]; 384 h, day 16, ± SD, read-out: Serum Cholesterol Control, % Day 16 | [3]; 384 h, day 16, ± SD, read-out: Serum Cholesterol as a function of control, 16 Day
81 ± 7%: [1]; 216 h, day 9, ± SD, read-out: Serum Cholesterol Control, % Day 9 | [2] | [3]; 216 h, day 9, ± SD, read-out: Serum Cholesterol as a function of control, 9 Day | [4]
